Source: paper PMC9851200, “Multiparameter phenotypic screening for endogenous TFEB and TFE3 translocation identifies novel chemical series modulating lysosome function” (Autophagy, 2022)

Key:
Type in all cases: binding
[1] = biological target: kinases (KINOMEscan panel) (Homo sapiens, UniProt P07332); details: kinase FES; NEW KINOMEscan
[2] = biological target: kinases (KINOMEscan panel) (Homo sapiens, UniProt P48736); details: kinase PIK3CG; NEW KINOMEscan
[3] = biological target: T1, kinases (KINOMEscan panel) (Homo sapiens, UniProt P57058); details: kinase HUNK; NEW KINOMEscan
T1 sequence (P57058 1-714): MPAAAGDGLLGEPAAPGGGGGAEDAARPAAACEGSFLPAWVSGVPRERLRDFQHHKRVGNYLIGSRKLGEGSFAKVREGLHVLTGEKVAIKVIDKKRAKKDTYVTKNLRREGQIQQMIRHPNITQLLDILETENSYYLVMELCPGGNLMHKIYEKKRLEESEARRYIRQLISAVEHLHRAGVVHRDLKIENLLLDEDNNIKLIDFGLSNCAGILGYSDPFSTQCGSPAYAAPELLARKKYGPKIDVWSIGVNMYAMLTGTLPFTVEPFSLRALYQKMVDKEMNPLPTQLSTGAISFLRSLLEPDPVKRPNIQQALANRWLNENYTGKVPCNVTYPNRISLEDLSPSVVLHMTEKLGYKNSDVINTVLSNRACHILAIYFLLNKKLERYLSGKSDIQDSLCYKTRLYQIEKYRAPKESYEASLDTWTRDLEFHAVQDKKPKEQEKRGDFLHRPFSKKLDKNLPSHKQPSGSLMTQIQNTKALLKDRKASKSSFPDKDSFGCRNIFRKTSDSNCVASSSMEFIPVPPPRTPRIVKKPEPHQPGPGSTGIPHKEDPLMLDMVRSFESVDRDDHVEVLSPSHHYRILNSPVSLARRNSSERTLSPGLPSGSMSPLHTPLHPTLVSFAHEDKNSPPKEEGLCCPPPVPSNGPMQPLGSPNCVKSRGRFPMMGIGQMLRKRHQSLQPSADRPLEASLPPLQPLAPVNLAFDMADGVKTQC

[4] = biological target: T2, kinases (KINOMEscan panel) (Homo sapiens, UniProt Q8TF76); details: HASPIN; NEW KINOMEscan
T2 sequence (Q8TF76 1-798): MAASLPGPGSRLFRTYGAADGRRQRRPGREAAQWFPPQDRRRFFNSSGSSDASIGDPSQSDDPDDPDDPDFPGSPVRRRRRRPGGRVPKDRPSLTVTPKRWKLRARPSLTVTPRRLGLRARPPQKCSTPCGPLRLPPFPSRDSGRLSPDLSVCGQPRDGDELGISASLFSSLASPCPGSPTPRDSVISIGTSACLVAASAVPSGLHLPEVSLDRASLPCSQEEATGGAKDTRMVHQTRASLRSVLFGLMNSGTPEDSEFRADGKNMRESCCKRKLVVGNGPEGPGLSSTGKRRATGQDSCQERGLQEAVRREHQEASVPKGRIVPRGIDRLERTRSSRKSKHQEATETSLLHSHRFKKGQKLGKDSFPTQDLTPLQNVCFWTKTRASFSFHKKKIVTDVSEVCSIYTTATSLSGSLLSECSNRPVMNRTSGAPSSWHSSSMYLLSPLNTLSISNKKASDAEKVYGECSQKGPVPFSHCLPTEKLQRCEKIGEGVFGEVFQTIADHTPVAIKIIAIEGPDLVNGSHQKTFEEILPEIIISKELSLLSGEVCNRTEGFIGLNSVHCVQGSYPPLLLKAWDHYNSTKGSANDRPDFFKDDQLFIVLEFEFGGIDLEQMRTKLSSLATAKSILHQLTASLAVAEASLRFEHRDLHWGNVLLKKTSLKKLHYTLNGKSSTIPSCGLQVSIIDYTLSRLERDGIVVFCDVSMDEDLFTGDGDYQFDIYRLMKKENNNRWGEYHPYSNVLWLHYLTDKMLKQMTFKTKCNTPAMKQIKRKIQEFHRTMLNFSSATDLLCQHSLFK

[5] = biological target: T3, kinases (KINOMEscan panel) (Homo sapiens, UniProt Q9NRP7); details: STK36; NEW KINOMEscan
T3 sequence (Q9NRP7 1-1315): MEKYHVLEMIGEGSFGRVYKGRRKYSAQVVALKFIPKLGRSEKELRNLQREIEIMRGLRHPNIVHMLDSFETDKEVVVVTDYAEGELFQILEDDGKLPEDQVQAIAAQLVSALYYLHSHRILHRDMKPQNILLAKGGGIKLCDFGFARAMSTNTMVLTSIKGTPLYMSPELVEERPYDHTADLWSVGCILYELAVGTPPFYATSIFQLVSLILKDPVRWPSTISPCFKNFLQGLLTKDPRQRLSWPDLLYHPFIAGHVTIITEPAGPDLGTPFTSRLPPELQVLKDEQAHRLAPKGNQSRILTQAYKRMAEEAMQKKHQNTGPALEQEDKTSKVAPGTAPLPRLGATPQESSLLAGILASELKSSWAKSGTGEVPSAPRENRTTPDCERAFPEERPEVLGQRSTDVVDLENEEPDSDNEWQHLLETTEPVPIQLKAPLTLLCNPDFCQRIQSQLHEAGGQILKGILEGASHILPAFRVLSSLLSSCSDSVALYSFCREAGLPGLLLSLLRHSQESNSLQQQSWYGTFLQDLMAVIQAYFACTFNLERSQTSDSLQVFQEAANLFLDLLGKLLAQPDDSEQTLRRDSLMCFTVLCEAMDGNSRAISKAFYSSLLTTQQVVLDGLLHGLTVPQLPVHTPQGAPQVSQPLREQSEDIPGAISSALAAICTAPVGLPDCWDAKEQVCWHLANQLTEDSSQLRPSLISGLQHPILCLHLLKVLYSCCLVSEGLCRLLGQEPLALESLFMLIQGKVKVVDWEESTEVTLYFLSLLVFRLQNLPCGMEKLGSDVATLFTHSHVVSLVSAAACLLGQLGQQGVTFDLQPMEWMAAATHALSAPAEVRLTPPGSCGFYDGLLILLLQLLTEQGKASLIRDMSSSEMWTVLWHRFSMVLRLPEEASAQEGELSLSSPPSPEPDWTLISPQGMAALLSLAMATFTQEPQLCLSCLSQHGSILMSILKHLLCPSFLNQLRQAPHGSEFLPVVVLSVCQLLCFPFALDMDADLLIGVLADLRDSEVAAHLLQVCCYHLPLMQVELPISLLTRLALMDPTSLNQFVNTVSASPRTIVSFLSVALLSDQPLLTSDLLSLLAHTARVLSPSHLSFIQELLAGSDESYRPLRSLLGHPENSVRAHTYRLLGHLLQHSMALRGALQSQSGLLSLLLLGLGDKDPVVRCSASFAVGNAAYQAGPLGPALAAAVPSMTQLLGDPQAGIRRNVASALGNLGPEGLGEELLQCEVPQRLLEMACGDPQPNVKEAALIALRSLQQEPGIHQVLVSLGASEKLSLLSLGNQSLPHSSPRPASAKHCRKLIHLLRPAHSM

Chain of kinases (KINOMEscan panel) (Homo sapiens, UniProt P48736) (P48736 whole entry): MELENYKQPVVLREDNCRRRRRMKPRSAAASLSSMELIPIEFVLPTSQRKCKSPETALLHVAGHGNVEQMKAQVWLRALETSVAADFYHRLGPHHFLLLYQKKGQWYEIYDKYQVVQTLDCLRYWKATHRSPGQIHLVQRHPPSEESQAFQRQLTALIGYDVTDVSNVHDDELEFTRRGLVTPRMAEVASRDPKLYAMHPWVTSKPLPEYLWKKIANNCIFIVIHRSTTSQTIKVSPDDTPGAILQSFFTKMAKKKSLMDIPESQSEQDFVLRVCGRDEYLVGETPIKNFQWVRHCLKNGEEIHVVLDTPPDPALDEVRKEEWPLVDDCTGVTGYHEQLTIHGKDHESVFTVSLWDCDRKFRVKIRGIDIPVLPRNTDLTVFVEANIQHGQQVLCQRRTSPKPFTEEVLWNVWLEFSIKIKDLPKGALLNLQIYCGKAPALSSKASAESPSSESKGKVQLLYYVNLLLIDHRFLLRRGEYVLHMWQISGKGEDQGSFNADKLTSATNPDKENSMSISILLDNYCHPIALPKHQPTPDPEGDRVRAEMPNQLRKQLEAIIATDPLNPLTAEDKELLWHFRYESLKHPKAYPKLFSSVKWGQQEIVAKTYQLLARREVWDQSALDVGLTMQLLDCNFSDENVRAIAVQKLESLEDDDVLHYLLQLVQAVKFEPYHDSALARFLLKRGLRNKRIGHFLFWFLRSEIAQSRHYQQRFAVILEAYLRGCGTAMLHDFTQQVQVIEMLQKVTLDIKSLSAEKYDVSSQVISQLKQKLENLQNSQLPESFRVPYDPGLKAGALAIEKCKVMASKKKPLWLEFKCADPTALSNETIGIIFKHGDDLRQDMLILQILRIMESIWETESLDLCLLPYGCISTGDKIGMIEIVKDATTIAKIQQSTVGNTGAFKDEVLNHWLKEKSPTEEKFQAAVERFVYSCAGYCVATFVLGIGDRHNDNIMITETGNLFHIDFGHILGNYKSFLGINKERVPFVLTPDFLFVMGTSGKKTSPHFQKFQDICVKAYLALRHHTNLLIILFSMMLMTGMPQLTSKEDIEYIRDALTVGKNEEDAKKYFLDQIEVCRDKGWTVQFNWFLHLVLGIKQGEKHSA
Chain of kinases (KINOMEscan panel) (Homo sapiens, UniProt P07332) (P07332 whole entry): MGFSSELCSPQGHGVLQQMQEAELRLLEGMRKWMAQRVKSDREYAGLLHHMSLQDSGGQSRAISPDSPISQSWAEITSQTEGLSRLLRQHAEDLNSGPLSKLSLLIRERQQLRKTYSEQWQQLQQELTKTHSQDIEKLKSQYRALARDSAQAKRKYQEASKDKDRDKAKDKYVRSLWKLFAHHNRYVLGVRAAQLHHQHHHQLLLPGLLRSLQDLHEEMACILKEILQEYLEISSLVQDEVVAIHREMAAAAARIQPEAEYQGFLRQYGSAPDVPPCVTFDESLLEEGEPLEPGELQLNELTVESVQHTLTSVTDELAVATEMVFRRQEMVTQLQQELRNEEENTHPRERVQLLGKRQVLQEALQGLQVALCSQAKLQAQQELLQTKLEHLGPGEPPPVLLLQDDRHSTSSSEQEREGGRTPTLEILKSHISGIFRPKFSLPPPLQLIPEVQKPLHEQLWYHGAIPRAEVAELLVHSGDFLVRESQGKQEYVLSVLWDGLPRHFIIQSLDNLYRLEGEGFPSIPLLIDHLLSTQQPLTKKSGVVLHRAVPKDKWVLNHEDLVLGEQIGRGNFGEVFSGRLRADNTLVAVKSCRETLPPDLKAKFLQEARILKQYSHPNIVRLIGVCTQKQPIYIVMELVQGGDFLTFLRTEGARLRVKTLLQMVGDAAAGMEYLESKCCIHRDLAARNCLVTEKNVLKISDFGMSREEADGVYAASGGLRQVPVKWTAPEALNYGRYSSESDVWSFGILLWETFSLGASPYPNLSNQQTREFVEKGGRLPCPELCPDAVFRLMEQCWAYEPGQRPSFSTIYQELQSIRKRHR

| SMILES | KINOMEscan FES [1] | KINOMEscan PIK3CG [2] | KINOMEscan HUNK [3] | KINOMEscan HASPIN [4] | KINOMEscan STK36 [5] |
| --- | --- | --- | --- | --- | --- |
| Cc1cccc(-c2nc(Nc3ccc4nn(C)cc4c3)c3ccccc3n2)n1 [NK167] | 0 | 0 | 0 | 4 | 0 |
| Cc1cccc(-c2nc(N(C)c3ccc4ncsc4c3)c3ccccc3n2)n1 [NK-161] | 4 | 8 | 4 | 7 | 7 |
